Our source for the IC50 values is BindingDB's records for doi:10.1021/jm00384a023 (1987).

As a reminder, the IC50 is the midpoint of a concentration-inhibition curve. Read a low IC50 as greater potency in that assay.

The test can be described thus: Inhibitor concentration required to block 50% of the specific [3H]PAF binding, obtained as natural product.

Molecules are shown by their SMILES.

Turning to `C=CCC1=CC2(OCC)C(=CC1=O)O[C@H](c1ccc(OC)c(OC)c1)[C@H]2C` (some centres not stated), the IC50 is 500 nM.

The compound `CCCC1=C[C@@]2(OC)C(=CC1=O)O[C@H](c1ccc(OC)c(OC)c1)[C@H]2C` registered an IC50 of 70 nM.
